Assay results published in a compilation of properties of binary mixtures (doi:10.1016/j.fluid.2020.112621).

Assay: xn = mol fraction of the nth substance listed
Details: 101 kPa

## CCC(=O)O.CCC(=O)[O-].CC[NH+](CC)CCO + CCCC[n+]1ccn(C)c1.COP(=O)([O-])OC
278.15 K, x1 = 0.1549
  viscosity: 1099.1 mPa·s
278.15 K, x1 = 0.2364
  viscosity: 655 mPa·s
278.15 K, x1 = 0.3281
  viscosity: 428 mPa·s
278.15 K, x1 = 0.4183
  viscosity: 329 mPa·s
278.15 K, x1 = 0.4953
  viscosity: 294 mPa·s
278.15 K, x1 = 0.6252
  viscosity: 241.4 mPa·s
278.15 K, x1 = 0.7416
  viscosity: 208.2 mPa·s
278.15 K, x1 = 0.8667
  viscosity: 184.2 mPa·s
278.15 K, x1 = 1
  viscosity: 244 mPa·s
283.15 K, x1 = 0.08
  viscosity: 1248.1 mPa·s
283.15 K, x1 = 0.1549
  viscosity: 726 mPa·s
283.15 K, x1 = 0.3281
  viscosity: 297 mPa·s
283.15 K, x1 = 0.4183
  viscosity: 230.3 mPa·s
283.15 K, x1 = 0.8667
  viscosity: 131 mPa·s
283.15 K, x1 = 1
  viscosity: 169 mPa·s
288.15 K, x1 = 0.08
  viscosity: 822 mPa·s
288.15 K, x1 = 0.1549
  viscosity: 494 mPa·s
288.15 K, x1 = 0.2364
  viscosity: 311 mPa·s
288.15 K, x1 = 0.3281
  viscosity: 211.1 mPa·s
288.15 K, x1 = 0.4183
  viscosity: 165.3 mPa·s
288.15 K, x1 = 0.4953
  viscosity: 147.5 mPa·s
288.15 K, x1 = 0.7416
  viscosity: 107.1 mPa·s
288.15 K, x1 = 0.8667
  viscosity: 95.3 mPa·s
288.15 K, x1 = 1
  viscosity: 120.7 mPa·s
293.15 K, x1 = 0.08
  viscosity: 559 mPa·s
293.15 K, x1 = 0.1549
  viscosity: 346 mPa·s
293.15 K, x1 = 0.2364
  viscosity: 223.3 mPa·s
293.15 K, x1 = 0.4183
  viscosity: 121.5 mPa·s
293.15 K, x1 = 0.4953
  viscosity: 108.6 mPa·s
293.15 K, x1 = 0.6252
  viscosity: 91.7 mPa·s
293.15 K, x1 = 0.7416
  viscosity: 79.5 mPa·s
293.15 K, x1 = 1
  viscosity: 88.3 mPa·s
298.15 K, x1 = 0.08
  viscosity: 391 mPa·s
298.15 K, x1 = 0.1549
  viscosity: 248.6 mPa·s
298.15 K, x1 = 0.2364
  viscosity: 164.2 mPa·s
298.15 K, x1 = 0.3281
  viscosity: 114.9 mPa·s
298.15 K, x1 = 0.4183
  viscosity: 91.4 mPa·s
298.15 K, x1 = 0.4953
  viscosity: 81.8 mPa·s
298.15 K, x1 = 0.6252
  viscosity: 69.5 mPa·s
298.15 K, x1 = 0.8667
  viscosity: 53.8 mPa·s
303.15 K, x1 = 0.1549
  viscosity: 183.2 mPa·s
303.15 K, x1 = 0.3281
  viscosity: 87.6 mPa·s
303.15 K, x1 = 0.4953
  viscosity: 62.8 mPa·s
303.15 K, x1 = 0.6252
  viscosity: 53.7 mPa·s
303.15 K, x1 = 0.7416
  viscosity: 46.6 mPa·s
303.15 K, x1 = 1
  viscosity: 50.6 mPa·s
308.15 K, x1 = 0.08
  viscosity: 206.6 mPa·s
308.15 K, x1 = 0.1549
  viscosity: 137.9 mPa·s
308.15 K, x1 = 0.2364
  viscosity: 94.7 mPa·s
308.15 K, x1 = 0.3281
  viscosity: 68 mPa·s
308.15 K, x1 = 0.4953
  viscosity: 49.2 mPa·s
308.15 K, x1 = 0.6252
  viscosity: 42.2 mPa·s
308.15 K, x1 = 0.7416
  viscosity: 36.7 mPa·s
308.15 K, x1 = 1
  viscosity: 39.4 mPa·s
313.15 K, x1 = 0.08
  viscosity: 155.3 mPa·s
313.15 K, x1 = 0.1549
  viscosity: 105.8 mPa·s
313.15 K, x1 = 0.2364
  viscosity: 73.9 mPa·s
313.15 K, x1 = 0.4183
  viscosity: 43.7 mPa·s
313.15 K, x1 = 0.6252
  viscosity: 33.7 mPa·s
313.15 K, x1 = 0.7416
  viscosity: 29.3 mPa·s
313.15 K, x1 = 0.8667
  viscosity: 26.3 mPa·s
313.15 K, x1 = 1
  viscosity: 31.2 mPa·s
318.15 K, x1 = 0.08
  viscosity: 119 mPa·s
318.15 K, x1 = 0.1549
  viscosity: 82.7 mPa·s
318.15 K, x1 = 0.2364
  viscosity: 58.7 mPa·s
318.15 K, x1 = 0.3281
  viscosity: 43.2 mPa·s
318.15 K, x1 = 0.4183
  viscosity: 35.28 mPa·s
318.15 K, x1 = 0.4953
  viscosity: 31.69 mPa·s
318.15 K, x1 = 0.7416
  viscosity: 23.81 mPa·s
318.15 K, x1 = 0.8667
  viscosity: 21.38 mPa·s
318.15 K, x1 = 1
  viscosity: 25.1 mPa·s
323.15 K, x1 = 0.08
  viscosity: 92.7 mPa·s
323.15 K, x1 = 0.1549
  viscosity: 65.7 mPa·s
323.15 K, x1 = 0.3281
  viscosity: 35.21 mPa·s
323.15 K, x1 = 0.4183
  viscosity: 28.91 mPa·s
323.15 K, x1 = 0.6252
  viscosity: 22.51 mPa·s
323.15 K, x1 = 0.7416
  viscosity: 19.58 mPa·s
323.15 K, x1 = 0.8667
  viscosity: 17.6 mPa·s
323.15 K, x1 = 1
  viscosity: 20.5 mPa·s
328.15 K, x1 = 0.08
  viscosity: 73.5 mPa·s
328.15 K, x1 = 0.1549
  viscosity: 52.95 mPa·s
328.15 K, x1 = 0.3281
  viscosity: 29.06 mPa·s
328.15 K, x1 = 0.4183
  viscosity: 23.98 mPa·s
328.15 K, x1 = 0.4953
  viscosity: 21.58 mPa·s
328.15 K, x1 = 0.6252
  viscosity: 18.74 mPa·s
328.15 K, x1 = 1
  viscosity: 16.89 mPa·s
333.15 K, x1 = 0.08
  viscosity: 59.07 mPa·s
333.15 K, x1 = 0.1549
  viscosity: 43.24 mPa·s
333.15 K, x1 = 0.2364
  viscosity: 31.98 mPa·s
333.15 K, x1 = 0.3281
  viscosity: 24.27 mPa·s
333.15 K, x1 = 0.4183
  viscosity: 20.13 mPa·s
333.15 K, x1 = 0.6252
  viscosity: 15.77 mPa·s
333.15 K, x1 = 0.7416
  viscosity: 13.7 mPa·s
338.15 K, x1 = 0.1549
  viscosity: 35.76 mPa·s
338.15 K, x1 = 0.3281
  viscosity: 20.49 mPa·s
338.15 K, x1 = 0.4183
  viscosity: 17.07 mPa·s
338.15 K, x1 = 0.4953
  viscosity: 15.33 mPa·s
338.15 K, x1 = 0.8667
  viscosity: 10.47 mPa·s
338.15 K, x1 = 1
  viscosity: 11.89 mPa·s
343.15 K, x1 = 0.08
  viscosity: 39.67 mPa·s
343.15 K, x1 = 0.1549
  viscosity: 29.9 mPa·s
343.15 K, x1 = 0.2364
  viscosity: 22.63 mPa·s
343.15 K, x1 = 0.3281
  viscosity: 17.47 mPa·s
343.15 K, x1 = 0.4183
  viscosity: 14.6 mPa·s
343.15 K, x1 = 0.6252
  viscosity: 11.5 mPa·s
343.15 K, x1 = 0.7416
  viscosity: 9.98 mPa·s
343.15 K, x1 = 0.8667
  viscosity: 8.98 mPa·s
343.15 K, x1 = 1
  viscosity: 10.12 mPa·s
348.15 K, x1 = 0.08
  viscosity: 33.08 mPa·s
348.15 K, x1 = 0.2364
  viscosity: 19.32 mPa·s
348.15 K, x1 = 0.3281
  viscosity: 15.03 mPa·s
348.15 K, x1 = 0.4953
  viscosity: 11.29 mPa·s
348.15 K, x1 = 0.7416
  viscosity: 8.63 mPa·s
348.15 K, x1 = 1
  viscosity: 8.68 mPa·s
353.15 K, x1 = 0.08
  viscosity: 27.89 mPa·s
353.15 K, x1 = 0.2364
  viscosity: 16.64 mPa·s
353.15 K, x1 = 0.3281
  viscosity: 13.04 mPa·s
353.15 K, x1 = 0.4953
  viscosity: 9.81 mPa·s
353.15 K, x1 = 0.6252
  viscosity: 8.67 mPa·s
353.15 K, x1 = 0.7416
  viscosity: 7.52 mPa·s
353.15 K, x1 = 0.8667
  viscosity: 6.75 mPa·s
353.15 K, x1 = 1
  viscosity: 7.5 mPa·s
358.15 K, x1 = 0.08
  viscosity: 23.73 mPa·s
358.15 K, x1 = 0.1549
  viscosity: 18.56 mPa·s
358.15 K, x1 = 0.2364
  viscosity: 14.45 mPa·s
358.15 K, x1 = 0.3281
  viscosity: 11.4 mPa·s
358.15 K, x1 = 0.7416
  viscosity: 6.59 mPa·s
358.15 K, x1 = 0.8667
  viscosity: 5.91 mPa·s
358.15 K, x1 = 1
  viscosity: 6.52 mPa·s
363.15 K, x1 = 0.08
  viscosity: 20.39 mPa·s
363.15 K, x1 = 0.1549
  viscosity: 16.1 mPa·s
363.15 K, x1 = 0.2364
  viscosity: 12.65 mPa·s
363.15 K, x1 = 0.3281
  viscosity: 10.04 mPa·s
363.15 K, x1 = 0.4183
  viscosity: 8.5 mPa·s
363.15 K, x1 = 0.4953
  viscosity: 7.58 mPa·s
363.15 K, x1 = 0.6252
  viscosity: 6.72 mPa·s
363.15 K, x1 = 0.8667
  viscosity: 5.21 mPa·s
368.15 K, x1 = 0.2364
  viscosity: 11.15 mPa·s
368.15 K, x1 = 0.3281
  viscosity: 8.9 mPa·s
368.15 K, x1 = 0.4183
  viscosity: 7.55 mPa·s
368.15 K, x1 = 0.4953
  viscosity: 6.73 mPa·s
368.15 K, x1 = 0.6252
  viscosity: 5.98 mPa·s
368.15 K, x1 = 0.8667
  viscosity: 4.62 mPa·s
368.15 K, x1 = 1
  viscosity: 5.01 mPa·s
373.15 K, x1 = 0.08
  viscosity: 15.41 mPa·s
373.15 K, x1 = 0.1549
  viscosity: 12.4 mPa·s
373.15 K, x1 = 0.2364
  viscosity: 9.89 mPa·s
373.15 K, x1 = 0.3281
  viscosity: 7.94 mPa·s
373.15 K, x1 = 0.4183
  viscosity: 6.75 mPa·s
373.15 K, x1 = 0.4953
  viscosity: 6.01 mPa·s
373.15 K, x1 = 0.6252
  viscosity: 5.34 mPa·s
373.15 K, x1 = 0.8667
  viscosity: 4.11 mPa·s
